How the values were obtained:
[1] = molecular target: NRAS G12C binding to BRAF RBD (Homo sapiens (Human), UniProt P01111+P62937, G12C); assay: Ras-Raf disruption/FRET/MOA assay, NRAS G12C; type: biochemical
Summary of the method: (§1)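 TR-FRET ratio drop relative to DMSO wells marks disruption of the Ras–RAF complex, reported as IC50. Compounds promote a Ras(nucleotide)–cyclophilin A ternary complex that blocks BRAF RBD binding; dosing was 10 points, 3-fold, top 30 μM final, 3 h at 25° C before detection.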

[2] = molecular target: KRAS G13C binding to BRAF RBD (Homo sapiens (Human), UniProt P01116+P62937, G13C); assay: Ras-Raf disruption/FRET/MOA assay, KRAS G13C; type: biochemical
KRAS G13C binding to BRAF RBD, sequence (P01116 other isoform, or with tags, fused parts or gaps G13C): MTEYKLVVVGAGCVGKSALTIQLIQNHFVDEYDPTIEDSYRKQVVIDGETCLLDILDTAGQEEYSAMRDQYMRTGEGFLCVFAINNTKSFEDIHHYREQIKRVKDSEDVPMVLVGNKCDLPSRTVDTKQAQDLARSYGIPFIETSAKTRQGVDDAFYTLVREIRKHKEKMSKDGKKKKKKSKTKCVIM
KRAS G13C binding to BRAF RBD, sequence (P62937 whole entry, the tested form may be a part): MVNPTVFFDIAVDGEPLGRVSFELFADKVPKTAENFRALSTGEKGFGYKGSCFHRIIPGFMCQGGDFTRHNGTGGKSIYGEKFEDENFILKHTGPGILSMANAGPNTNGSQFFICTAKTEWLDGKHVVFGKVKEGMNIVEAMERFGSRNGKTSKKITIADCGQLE
Excerpt: Disruption of B-Raf Ras-binding Domain (BRAF^RBD) Interaction with K-Ras by Compounds of the Invention (also called a FRET assay or an MOA assay)
Note—The following protocol describes a procedure for monitoring disruption of K-Ras G12C(GMP-PNP) binding to BRAF^RBD by a compound of the invention. This protocol may also be executed substituting other Ras proteins or nucleotides.
(§2) The purpose of this biochemical assay was to measure the ability of test compounds to facilitate ternary complex formation between a nucleotide-loaded K-Ras isoform and Cyclophilin A; the resulting ternary complex disrupts binding to a BRAF^RBD construct, inhibiting K-Ras signaling through a RAF effector. Data is reported as IC50 values.
(§3) In assay buffer containing 25 mM HEPES pH 7.3, 0.002% Tween20, 0.1% BSA, 100 mM NaCl and 5 mM MgCl2, tagless Cyclophilin A, His6-K-Ras-GMPPNP, and GST-BRAF^RBD were combined in a 384-well assay plate at final concentrations of 25 μM, 12.5 nM and 50 nM, respectively. Compound was present in plate wells as a 10-point 3-fold dilution series starting at a final concentration of 30 μM. After incubation at 25° C. for 3 hours, a mixture of Anti-His Eu—W1024 and anti-GST allophycocyanin was then added to assay sample wells at final concentrations of 10 nM and 50 nM, respectively, and the reaction incubated for an additional 1.5 hours. […] Compounds that facilitate disruption of a K-Ras: RAF complex were identified as those eliciting a decrease in the TR-FRET ratio relative to DMSO control wells.

[3] = molecular target: KRAS G12S binding to BRAF RBD (Homo sapiens (Human), UniProt P01116+P62937, G12S); assay: Ras-Raf disruption/FRET/MOA assay, KRAS G12S; type: biochemical
KRAS G12S binding to BRAF RBD, sequence (P01116 other isoform, or with tags, fused parts or gaps G12S): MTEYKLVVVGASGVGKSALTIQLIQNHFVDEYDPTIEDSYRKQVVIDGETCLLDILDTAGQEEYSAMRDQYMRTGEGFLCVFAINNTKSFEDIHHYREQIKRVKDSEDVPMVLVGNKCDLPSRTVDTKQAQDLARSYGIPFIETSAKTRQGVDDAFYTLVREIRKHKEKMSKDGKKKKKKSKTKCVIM
KRAS G12S binding to BRAF RBD, sequence (P62937 whole entry): as the sequence (P62937 whole entry, the tested form may be a part) above
Summary of the method: as §1

[4] = molecular target: K-Ras G12C(GMP-PNP) binding to BRAF RBD (Homo sapiens (Human), UniProt P01116+P62937, G12C); assay: Disruption of BRAF RBD interaction with K-Ras (FRET / MOA assay), K-Ras G12C; type: biochemical; settings: read-out: KRAS G12C FRET IC50
K-Ras G12C(GMP-PNP) binding to BRAF RBD, sequence (P01116 other isoform, or with tags, fused parts or gaps G12C): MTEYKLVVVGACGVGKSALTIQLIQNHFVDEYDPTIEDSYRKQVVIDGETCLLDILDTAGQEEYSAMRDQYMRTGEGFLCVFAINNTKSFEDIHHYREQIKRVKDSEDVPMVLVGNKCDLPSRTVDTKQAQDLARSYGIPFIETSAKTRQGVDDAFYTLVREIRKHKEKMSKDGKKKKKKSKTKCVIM
K-Ras G12C(GMP-PNP) binding to BRAF RBD, sequence (P62937 whole entry, canonical isoform): as the sequence (P62937 whole entry, the tested form may be a part) above
Summary of the method: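 Incubation of compound (up to 30 μM final, 3-fold steps) with GMP-PNP-type loaded Ras isoform, cyclophilin A and BRAF RBD ran 3 h at 25° C, followed by 1.5 h with detection antibodies. Disruption appears as a reduced TR-FRET ratio compared with DMSO controls, expressed as IC50.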

[5] = test system: K-Ras G12C (NCI-H358 cells); assay: Potency assay: pERK in NCI-H358 cells; type: cell-based, human; settings: Homo sapiens; NCI-H358 cells, 4 hours; read-out: pERK EC50 (H358 KRAS G12C)
Summary of the method: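 Cells plated the day before were exposed for 4 h at 37° C, 5% CO2 to a 10-point, 3-fold DMSO dilution series (10 mM top stock), in duplicate. Phospho-ERK was read by AlphaLISA SureFire Ultra or by In-Cell Western with DRAQ5 DNA stain, and IC50 came from a 4-parameter sigmoidal fit.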

[6] = molecular target: KRAS WT binding to BRAF RBD (Homo sapiens (Human), UniProt P01116+P62937); assay: Ras-Raf disruption/FRET/MOA assay, KRAS WT; type: biochemical
KRAS WT binding to BRAF RBD, sequence (P01116 other isoform, or with tags, fused parts or gaps): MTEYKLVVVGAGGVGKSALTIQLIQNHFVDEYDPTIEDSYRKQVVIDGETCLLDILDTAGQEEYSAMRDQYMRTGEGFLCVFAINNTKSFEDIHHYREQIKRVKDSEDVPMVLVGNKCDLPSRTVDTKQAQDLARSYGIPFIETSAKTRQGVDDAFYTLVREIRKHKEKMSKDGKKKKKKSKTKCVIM
KRAS WT binding to BRAF RBD, sequence (P62937 whole entry): as the sequence (P62937 whole entry, the tested form may be a part) above
Summary of the method: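 TR-FRET disruption assay: His6-tagged GMPPNP-loaded Ras (12.5 nM), GST-BRAF RBD (50 nM) and Cyclophilin A (25 μM) incubated with compound (10-point 3-fold series from 30 μM) 3 h at 25°C in HEPES pH 7.3 buffer with MgCl2 and NaCl. Anti-His Eu (10 nM)/anti-GST APC (50 nM) added, 1.5 h more; IC50 from FRET-ratio decrease versus DMSO.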

NCI-H358 (K-Ras G12C) = assay: CellTiter-Glo cell viability assay, NCI-H358; type: cell-based, human; settings: Homo sapiens, NCI-H358, 120 h, 5-day treatment; read-out: H358 Cell Viability assay data (K-Ras G12C, IC50)
Summary of the method: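 Cells seeded, compound added directly to plates; day 5: plates to RT ~30 min, CellTiter-Glo luminescence; (sample/avg DMSO)*100; 4-parameter fit.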

NRAS Q61R = NRAS Q61R (Homo sapiens (Human), UniProt P01111+P62937, Q61R); assay: Ras-Raf disruption/FRET/MOA assay, NRAS Q61R; type: biochemical
NRAS Q61R, sequence (P01111 whole entry Q61R, the tested form may be a part): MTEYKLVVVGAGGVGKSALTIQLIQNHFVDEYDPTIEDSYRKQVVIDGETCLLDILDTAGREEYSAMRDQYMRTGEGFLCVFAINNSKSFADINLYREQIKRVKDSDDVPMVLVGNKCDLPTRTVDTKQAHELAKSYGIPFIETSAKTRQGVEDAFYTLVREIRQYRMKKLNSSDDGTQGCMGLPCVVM
NRAS Q61R, sequence (P62937 whole entry, the tested form may be a part): as the sequence (P62937 whole entry, the tested form may be a part) above
Excerpt: (§4) Disruption of B-Raf Ras-Binding Domain (BRAF^RBD) Interaction with K-Ras by Compounds of the Invention (Also Called a FRET Assay or an MOA Assay)
(§5) Note—The following protocol describes a procedure for monitoring disruption of K-Ras G12C (GMP-PNP) binding to BRAF^RBD by a compound of the invention. This protocol may also be executed substituting other Ras proteins or nucleotides, such as K-Ras G12D and K-Ras G13D.
as §2
as §3, with “12.5 nM,” for “12.5 nM”, “of anti-His” for “of Anti-His”

KRAS G12V = KRAS G12V (Homo sapiens (Human), UniProt P01116+P62937, G12V); assay: Ras-Raf disruption/FRET/MOA assay, KRAS G12V; type: biochemical
Summary of the method: (§6)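 TR-FRET of nucleotide-loaded (GMP-PNP) His6-Ras (12.5 nM) binding to GST-BRAF RBD (50 nM) with Cyclophilin A (25 μM) in HEPES pH 7.3 buffer; 10-point 3-fold compound series from 30 μM, 3 h at 25 °C, then anti-His Eu/anti-GST APC 1.5 h. IC50 from decreased FRET ratio vs DMSO.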

AsPC-1 (K-Ras G12D) = assay: Potency assay: pERK; type: cell-based, human; settings: Homo sapiens, ASPC1; AsPC-1 KRAS G12D; read-out: pERK EC50
Summary of the method: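 Cells plated overnight, then exposed 4 h at 37 °C to 10-point 3-fold dilutions of compound, in duplicate. pERK read by AlphaLISA SureFire Ultra p-ERK1/2 lysate assay or by In-Cell Western (pERK antibody, DRAQ5 DNA normalisation). IC50 from 4-parameter sigmoidal fit of signal vs log concentration.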

NRAS Q61K = NRAS Q61K (Homo sapiens (Human), UniProt P01111+P62937, Q61K); assay: Ras-Raf disruption/FRET/MOA assay, NRAS Q61K; type: biochemical
NRAS Q61K, sequence (P01111 whole entry Q61K): as the sequence (P01111 whole entry Q61R, the tested form may be a part) above, with R61K counted along it
NRAS Q61K, sequence (P62937 whole entry): as the sequence (P62937 whole entry, the tested form may be a part) above
Excerpt: as §4, §5, §2
as §3, with “12.5 nM,” for “12.5 nM”, “of anti-His” for “of Anti-His”

NRAS WT = NRAS WT (Homo sapiens (Human), UniProt P01111+P62937); assay: Ras-Raf disruption/FRET/MOA assay, NRAS WT; type: biochemical
NRAS WT, sequence (P01111 whole entry): as the sequence (P01111 whole entry Q61R, the tested form may be a part) above, with R61Q counted along it
NRAS WT, sequence (P62937 whole entry): as the sequence (P62937 whole entry, the tested form may be a part) above
Excerpt: as §4, §5, §2
as §3, with “12.5 nM,” for “12.5 nM”, “of anti-His” for “of Anti-His”

KRAS G12D = KRAS G12D (Homo sapiens (Human), UniProt P01116+P62937, G12D); assay: Ras-Raf disruption/FRET/MOA assay, KRAS G12D; type: biochemical
Summary of the method: as §6

KRAS G12C = KRAS G12C (Homo sapiens (Human), UniProt P01116+P62937, G12C); assay: Ras-Raf disruption/FRET/MOA assay, KRAS G12C; type: biochemical
KRAS G12C, sequence (P01116-2 other isoform, or with tags, fused parts or gaps G12C): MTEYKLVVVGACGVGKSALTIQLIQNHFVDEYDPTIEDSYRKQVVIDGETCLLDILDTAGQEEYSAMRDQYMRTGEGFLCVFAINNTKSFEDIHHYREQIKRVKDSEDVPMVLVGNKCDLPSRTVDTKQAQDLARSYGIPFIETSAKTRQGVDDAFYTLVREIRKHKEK
KRAS G12C, sequence (P62937 whole entry): as the sequence (P62937 whole entry, the tested form may be a part) above
Summary of the method: as §6

KRAS G12S = KRAS G12S (Homo sapiens (Human), UniProt P01116+P62937, G12S); assay: Ras-Raf disruption/FRET/MOA assay, KRAS G12S; type: biochemical
KRAS G12S, sequence (P01116 other isoform, or with tags, fused parts or gaps G12S): as the sequence (P01116 other isoform, or with tags, fused parts or gaps G12S) above
KRAS G12S, sequence (P62937 whole entry): as the sequence (P62937 whole entry, the tested form may be a part) above
Summary of the method: as §6

KRAS WT = KRAS WT (Homo sapiens (Human), UniProt P01116+P62937); assay: Ras-Raf disruption/FRET/MOA assay, KRAS WT; type: biochemical
KRAS WT, sequence (P01116 other isoform, or with tags, fused parts or gaps): as the sequence (P01116 other isoform, or with tags, fused parts or gaps) above
KRAS WT, sequence (P62937 whole entry): as the sequence (P62937 whole entry, the tested form may be a part) above
Summary of the method: as §6

KRAS G13C = KRAS G13C (Homo sapiens (Human), UniProt P01116+P62937, G13C); assay: Ras-Raf disruption/FRET/MOA assay, KRAS G13C; type: biochemical
Summary of the method: as §6

KRAS Q61H = KRAS Q61H (Homo sapiens (Human), UniProt P01116+P62937, Q61H); assay: Ras-Raf disruption/FRET/MOA assay, KRAS Q61H; type: biochemical
KRAS Q61H, sequence (P01116 other isoform, or with tags, fused parts or gaps Q61H): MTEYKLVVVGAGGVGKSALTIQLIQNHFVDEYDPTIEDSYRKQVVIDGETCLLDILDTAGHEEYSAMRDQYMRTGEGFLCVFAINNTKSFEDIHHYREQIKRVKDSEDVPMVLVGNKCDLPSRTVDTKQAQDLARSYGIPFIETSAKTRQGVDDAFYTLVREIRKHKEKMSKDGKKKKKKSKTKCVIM
KRAS Q61H, sequence (P62937 whole entry): as the sequence (P62937 whole entry, the tested form may be a part) above
Excerpt: as §4, §5, §2
as §3, with “12.5 nM,” for “12.5 nM”, “of anti-His” for “of Anti-His”

KRAS G13D = KRAS G13D (Homo sapiens (Human), UniProt P01116+P62937, G13D); assay: Ras-Raf disruption/FRET/MOA assay, KRAS G13D; type: biochemical
KRAS G13D, sequence (P01116 other isoform, or with tags, fused parts or gaps G13D): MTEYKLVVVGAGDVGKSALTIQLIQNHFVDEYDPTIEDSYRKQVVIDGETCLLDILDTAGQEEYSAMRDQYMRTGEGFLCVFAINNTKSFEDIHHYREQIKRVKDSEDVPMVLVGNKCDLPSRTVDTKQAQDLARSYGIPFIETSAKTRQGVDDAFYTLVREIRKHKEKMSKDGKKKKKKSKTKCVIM
KRAS G13D, sequence (P62937 whole entry): as the sequence (P62937 whole entry, the tested form may be a part) above
Summary of the method: as §6

NRAS G12C = NRAS G12C (Homo sapiens (Human), UniProt P01111+P62937, G12C); assay: Ras-Raf disruption/FRET/MOA assay, NRAS G12C; type: biochemical
NRAS G12C, sequence (P01111 whole entry G12C): as the sequence (P01111 whole entry Q61R, the tested form may be a part) above, with G12C, R61Q counted along it
NRAS G12C, sequence (P62937 whole entry): as the sequence (P62937 whole entry, the tested form may be a part) above
Summary of the method: as §6

NRAS G12C binding to BRAF RBD, sequence (P01111 whole entry G12C): as the sequence (P01111 whole entry Q61R, the tested form may be a part) above, with G12C, R61Q counted along it
NRAS G12C binding to BRAF RBD, sequence (P62937 whole entry): as the sequence (P62937 whole entry, the tested form may be a part) above

SMILES | IC50 [1] | IC50 [2] | IC50 [3] | IC50 [4] | EC50 [5] | IC50 [6] | IC50 (NCI-H358 (K-Ras G12C)) | IC50 (NRAS Q61R) | IC50 (KRAS G12V) | EC50 (AsPC-1 (K-Ras G12D)) | IC50 (NRAS Q61K) | IC50 (NRAS WT) | IC50 (KRAS G12D) | IC50 (KRAS G12C) | IC50 (KRAS G12S) | IC50 (KRAS WT) | IC50 (KRAS G13C) | IC50 (KRAS Q61H) | IC50 (KRAS G13D) | IC50 (NRAS G12C)
CCn1c(-c2cnccc2COC)c2c3cc(ccc31)-c1cc(O)cc(c1)C[C@H](NC(=O)[C@H](C(C)C)N(C)C(=O)[C@H]1CCN(C(=O)C#CCN(C)C)C1)C(=O)N1CCC[C@H](N1)C(=O)OCC(C)(C)C2 [Compound A107] | < 0.01 µM | < 0.01 µM | – | – | – | – | – | – | – | – | – | – | – | – | – | – | – | – | – | –
CCn1c(-c2cccnc2[C@H](C)OC)c2c3cc(ccc31)-c1csc(n1)C[C@H](NC(=O)[C@H](C(C)C)N(C)C(=O)N1CC(C)(OC)C1)C(=O)N1CCC[C@H](N1)C(=O)OCC(C)(C)C2 [Compound A299] | – | < 0.01 µM | 0.01 to 0.1 µM | < 0.01 µM | < 5 µM | 0.01 to 0.1 µM | < 0.01 µM | – | – | – | – | – | – | – | – | – | – | – | – | –
CCn1c(-c2cccnc2[C@H](C)OC)c2c3cc(ccc31)-c1cc(O)cc(c1)C[C@H](NC(=O)[C@H](C(C)C)N(C)C(=O)[C@@]1(C)CCCN1C(=O)[C@H]1CN1)C(=O)N1CCC[C@H](N1)C(=O)OCC(C)(C)C2 [Example 239] | – | – | – | – | – | – | – | 0.1 to 1 µM | 0.01 to 0.1 µM | < 5 µM | 0.1 to 1 µM | 0.01 to 0.1 µM | 0.1 to 1 µM | 0.01 to 0.1 µM | 0.01 to 0.1 µM | 0.01 to 0.1 µM | 0.01 to 0.1 µM | 0.01 to 0.1 µM | 0.01 to 0.1 µM | 0.01 to 0.1 µM

Source: patent US20250195521A1 (Revolution Medicines, Inc., priority 2020, published 2025)
